This assay deals with 292921-168-R-J2-PDC complex spheroid viability. Nature of the assay: Anticancer human tumor 292921-168-R-J2-PDC patient-derived pancreatic carcinoma cell line growth inhibition. As to conditions: for viability, T/C: stronger effect = lower value; for IC50: curve of compound. The text has this:
Multicellular complex tumor spheroid response to LSD1 Inhibitor Iadademstat in combination with a variety of drugs and investigational agents in selected tumor cell lines
The current study was undertaken to assess response to LSD1 inhibitors in combination with standard-of-care drugs and investigational agents in solid tumor complex spheroid models as well as in the K-562 leukemia. Complex spheroids include a stromal component modeled by human endothelial cells (HUVEC) and fibroblasts modeled by human mesenchymal stem cells (MSCs). The concentration ranges selected for each drug and investigational agent were based upon clinically achievable concentrations if the clinical Cmax of the agent was known.
Compounds. The drugs and investigational agents used in this study are listed on Table 1. All of the agents used, including staurosporine (NSC755774) and gemcitabine (NSC613327), were obtained from the Developmental Therapeutics Program, NCI. FDA-approved anticancer drugs are available from the NCI at http://dtp.nci.nih.gov/branches/dscb/oncology_drugset_explanation.html. Drugs and investigational agents were >95% pure by proton nuclear magnetic resonance (NMR) and liquid chromatography/mass spectrometry (LC/MS). Stock solutions were prepared at 400x in DMSO, stored at -70 degrees C, and diluted in fresh medium prior to their use. The final concentration of DMSO in cell culture wells never exceeded 0.25% (v/v). The FDA-approved anticancer drug set is available from the Developmental Therapeutics Program at https://dtp.cancer.gov/organization/dscb/obtaining/available_plates.htm. All drugs and investigational agents were tested over a range starting from a high concentration at or near the clinical Cmax and decreasing in half-log increments. If the clinical Cmax for an agent had not been determined, the highest concentration tested was 10 microM.
Cell Lines. The patient-derived cancer cell (PDC) lines: 292921-168-R-J2-PDC, K24384-001-R-PDC, and 521955-158-R2-J5-PDC pancreatic carcinomas, 556581-035-R-J1 ovarian carcinoma, 324938-238-R-J1-PDC, 855422-203-R-J1-PDC and 883617-216-R-J1-PDC urothelial bladder carcinomas, 743489-274-T-PDC renal cell carcinoma, 138582-R-J1 Merkel cell tumor, K60290-347-R-J1 and K57222-313-R-J1-PDC glioblastomas, 653999-131-R-J2-PDC, LG0703-F948-PDC, and 349418-098-R-PDC non-small cell lung carcinomas, 885512-296-R-J2-PDC, 171881-019-R-J1-PDC breast carcinomas and 186277-243-T-J2-PDC and 233499-124-R-J2-PDC colon carcinomas were obtained from the NCI Patient-Derived Models Repository (PDMR, https://pdmr.cancer.gov). The established cell lines NCI/ADR-RES (RRID:CVCL_14520 and OVCAR-5 (RRID:CVCL_1628) ovarian carcinomas, 786-O (RRID:CVCL_1051) and A498 (RRID:CVCL_A498) renal cell carcinoma, NCI-H211 (ATCC, cat. CRL-5824; RRID:CVCL_1529), NCI-H196 (ATCC, cat. CRL-5823, RRID:CVCL_1509), SW 1271 (ATCC, cat. CRL-2177, RRID:CVCL_1716) and NCI-H1876 (ATCC, cat. CRL-5902, RRID:CVCL_1503) small cell lung carcinomas, MDA-MB-231 (RRID:CVCL_0062) and MDA-MB-468 (RRID:CVCL_0419)breast carcinomas (10-12). Pooled donor human umbilical vein endothelial cells (HUVEC, Lonza, cat. CC-2519) and human mesenchymal stem cells (hMSC, Lonza, cat. PT-2501) were purchased from Lonza (Walkersville, MD).
Cell Culture. All cells were maintained in an incubator at 37 degrees C and 5% CO2 with 95% humidity. The PDC lines were cultured according to standard operating procedures established by the NCI PDMR (https://pdmr.cancer.gov). Briefly all PDCs were thawed and cultured in Matrigel-coated flasks prepared with a working solution of 1X Ham's F-12 nutrient mix, without supplementation (Invitrogen, Waltham, MA, cat. 11765054), 100 U/mL penicillin-streptomycin (Invitrogen, cat. 15140122), and 2.5% Matrigel (Corning Inc., Corning, NY, cat. 354248) for the first three passages. […]

“And” between values parts separate entries of the source, which are not always exact repeats. Identical values can stand only once. Some results are limits rather than exact numbers.
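Also: seven day compound exposure before luminescent viability read.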

A word on the viability, T/C: it is the result in the treated group divided by that in the control group, in per cent. In general, IC50 refers to the concentration at which inhibition is half-maximal. Consider `Cn1ncnc1C1c2n[nH]c(=O)c3cc(F)cc(c23)NC1c1ccc(F)cc1` (stereo not drawn), for which the IC50 was over 100 nM. For the same molecule, the viability, T/C (compound 0.000316 µM) was 86.8% and 103%. Further, the viability, T/C (compound 0.001 µM) is 102% and 101%. For the same molecule, the viability, T/C (compound 0.00316 µM) was 94.5% and 96.3%. Moreover, the viability, T/C (compound 0.01 µM) was 93.9% and 94.8%. Moreover, for the setting “compound 0.0316 µM”, the viability, T/C was 85.9% and 88.3%. Under “compound 0.1 µM”, the viability, T/C is 82.3% and 83.5%.
Take `NS(=O)(=O)OCC1CC(n2ccc3c(NC4CCc5ccccc54)ncnc32)CC1O` (stereo not drawn): the IC50 is 16.4 nM and 18.1 nM. Also, the viability, T/C (compound 0.00949 µM) was 81.2% and 90.5%. For the same molecule, the viability, T/C (compound 0.03 µM) is 15.7% and 18%. Besides, the viability, T/C (compound 0.0949 µM) was 2.87% and 3.52%. In addition, the viability, T/C (compound 0.3 µM) is 1.94% and 1.72%. In addition, the viability, T/C (compound 0.949 µM) is 1.98% and 1.67%. Moreover, the viability, T/C (compound 3 µM) is 1.78% and 1.54%.
As to `Nc1ccccc1NC(=O)c1ccc(CNC(=O)OCc2cccnc2)cc1`, the IC50 is 24.9 nM and 28.3 nM. Also, the viability, T/C (compound 0.00949 µM) was 67.9% and 65.7%. Under “compound 0.03 µM”, the viability, T/C was 45.2% and 49.2%. Also, the viability, T/C (compound 0.0949 µM) is 31% and 31.7%. Further, the viability, T/C (compound 0.3 µM) was 17.2% and 19.8%. Further, under “compound 0.949 µM”, the viability, T/C is 4.09% and 5.39%. Further, the viability, T/C (compound 3 µM) was 0.29% and 0.27%.
In the case of `Nc1ccn(C2OC(CO)C(O)C2(F)F)c(=O)n1` (stereo not drawn), the IC50 was under 0.949 nM. In addition, the viability, T/C (compound 0.000949 µM) is 39.2% and 33.5%. Besides, the viability, T/C (compound 0.003 µM) is 12% and 10.8%. Further, the viability, T/C (compound 0.00949 µM) was 6.12% and 5.67%. The viability, T/C (compound 0.03 µM) was 5.81% and 5.6%. For the same molecule, the viability, T/C (compound 0.0949 µM) is 8.04% and 6.06%. Also, the viability, T/C (compound 0.3 µM) was 6.84% and 5.56%.
Take `Nc1ncn(C2CC(O)C(CO)O2)c(=O)n1` (stereo not drawn): the IC50 is over 1000 nM. Further, the viability, T/C (compound 0.00316 µM) was 98.6% and 89%. In addition, the viability, T/C (compound 0.01 µM) is 96.7% and 91.5%. Besides, the viability, T/C (compound 0.0316 µM) is 71.8% and 82.9%. Moreover, the viability, T/C (compound 0.1 µM) was 69.7% and 73.9%. In addition, where the note is “compound 0.316 µM”, the viability, T/C was 63.4% and 63.6%. The viability, T/C (compound 1 µM) is 55.4% and 58.2%.
As to `Nc1ncn(C2CC(O)C(CO)S2)c(=O)n1` (stereo not drawn), the half-inhibitory concentration (IC50) is 72.5 nM and 83.7 nM. In addition, the viability, T/C (compound 0.000949 µM) is 96.5% and 102%. Further, the viability, T/C (compound 0.003 µM) is 104% and 92.4%. Also, under “compound 0.00949 µM”, the viability, T/C is 84% and 88.4%. Besides, the viability, T/C (compound 0.03 µM) is 72.4% and 80.4%. In addition, the viability, T/C (compound 0.0949 µM) is 43.5% and 45.3%. The viability, T/C (compound 0.3 µM) is 13.5% and 13.6%.
For the molecule `O=C(C=Cc1cccc(S(=O)(=O)Nc2ccccc2)c1)NO`, the IC50 is < 9.49 nM and 12.8 nM. Further, the viability, T/C (compound 0.00949 µM) is 47.6% and 52.8%. In addition, for the setting “compound 0.03 µM”, the viability, T/C is 41% and 44.1%. In addition, the viability, T/C (compound 0.0949 µM) is 28.8% and 32.3%. Moreover, under “compound 0.3 µM”, the viability, T/C was 18.1% and 25.8%. Further, under “compound 0.949 µM”, the viability, T/C is 0.52% and 1.26%. The viability, T/C (compound 3 µM) is 0.15%.
Turning to `O=C(C=Cn1cnc(-c2cc(C(F)(F)F)cc(C(F)(F)F)c2)n1)NNc1cnccn1`, the IC50 was 12.4 nM and 11.4 nM. For the same molecule, the viability, T/C (compound 0.00316 µM) was 59.5% and 55.2%. For the setting “compound 0.01 µM”, the viability, T/C was 55.9% and 55%. Further, the viability, T/C (compound 0.0316 µM) is 30.4% and 29.4%. Further, under “compound 0.1 µM”, the viability, T/C was 14.4% and 14.1%. For the same molecule, the viability, T/C (compound 0.316 µM) was 8.05% and 8.45%. The viability, T/C (compound 1 µM) was 5.62% and 5.3%.
For the molecule `O=C(c1cc(Cc2n[nH]c(=O)c3ccccc23)ccc1F)N1CCN(C(=O)C2CC2)CC1`, the IC50 was 9280 nM and 7490 nM. For the same molecule, for the setting “compound 0.0316 µM”, the viability, T/C was 106% and 100%. Also, for the setting “compound 0.1 µM”, the viability, T/C is 98.8% and 100%. Moreover, the viability, T/C (compound 0.316 µM) was 98.5% and 99.6%. Further, the viability, T/C (compound 1 µM) is 95.4% and 85.9%. Besides, the viability, T/C (compound 3.16 µM) is 74.9% and 73%. Also, the viability, T/C (compound 10 µM) is 48.1% and 42.4%.
